The values that follow come from PMC3679140, “Synthesis of Indole Derived Protease-Activated Receptor 4 Antagonists and Characterization in Human Platelets” (PLoS ONE, 2013).

Molecules are shown by their SMILES.

Test [1] concerns thrombin mediated platelet GPIIbIIIa activation. The test can be described thus: Flow cytometry: thrombin mediated GPIIbIIIa activation in washed platelets. It is filed as cell-based, human. The settings on record: for Addition of the effect of RWJ-56110 on thrombin and the effect of the compound on PAR1-AP: sum of separate inhibitory effects, 1 µM compound, 10 µM RWJ-56110. The procedure: (§1) Briefly, 60 µL of washed platelets at a concentration of 1.5×10^7 platelets/mL were added to polystyrene tubes. Anti-CD62P antibody or PAC-1 antibody were diluted (per manufacturer protocol) in Tyrode’s buffer containing 0.1% BSA. 40 µL of diluted antibody was added to the platelets and allowed to bind for 5 minutes. Platelets were pre-treated with indicated concentrations of antagonist or DMSO control for 5 minutes followed by addition of PAR1-AP or PAR4-AP for 10 minutes. Platelet activity was quenched by the addition ice cold 1.5% paraformaldehyde followed by dilution in 1X phosphate buffered saline. The final DMSO concentration was 0.5%. Platelets were stored up to 18 hours at 4°C before flow cytometric analysis. Analysis was carried out on a BD FACS Canto II (Franklin Lakes, NJ). Fluorescent intensity was determined for 100,000 events within the platelet gate. Data was collected and analyzed via FACS DiVa software.
(§2) 100% max response was determined for each individual as the DMSO treated control stimulated with either 200 µM PAR4-AP, 20 µM PAR1-AP, or 10 nM thrombin. Samples treated with antagonist were normalized as a percentage of the DMSO treated control. Normalized data was plotted in GraphPad PRISM v.5.0. Dose response curves and subsequent IC50 values were generated using the ‘log(inhibitor) vs. response variable slope’ parameter. Data plotted is mean±S.E.M. or mean±S.D.
(In general: A flow cytometer gives signals particle by particle.)

Test [2] has as its target T1, PAR4 (Homo sapiens, UniProt Q96RI0).
T1 construct: Human platelets express both PAR1 and PAR4; endogenous in cells; host or cells: washed human platelets from volunteer donors
T1 sequence (Q96RI0 18-385): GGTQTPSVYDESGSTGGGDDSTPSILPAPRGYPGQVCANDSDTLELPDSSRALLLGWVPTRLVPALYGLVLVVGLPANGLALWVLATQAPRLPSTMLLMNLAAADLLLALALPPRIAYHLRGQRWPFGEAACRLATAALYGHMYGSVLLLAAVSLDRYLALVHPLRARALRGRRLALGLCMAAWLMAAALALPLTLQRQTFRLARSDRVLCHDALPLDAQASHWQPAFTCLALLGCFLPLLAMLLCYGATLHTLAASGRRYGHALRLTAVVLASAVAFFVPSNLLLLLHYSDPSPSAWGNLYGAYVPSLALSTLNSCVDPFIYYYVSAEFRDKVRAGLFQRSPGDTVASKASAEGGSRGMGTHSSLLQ
The test can be described thus: High-throughput platelet calcium mobilization assay (PAR4-AP stimulated). The class given is cell-based. The settings on record: for Emax at 10 µM: 10 µM compound 6 min prior to 80 µM PAR4-AP, Figure 2D, read-out: PAR4 mediated platelet calcium mobilization, percent of the maximum response. The procedure:
Washed human platelets were prepared via standard procedure and suspended in Tyrode’s buffer containing 0.1% BSA. Platelets were dye loaded for 1 hour with Fluo4-AM in calcium assay buffer (1X HBSS without calcium or magnesium, 20 mM HEPES, 2.5 mM probenecid, 1 mM EGTA, 0.1% BSA). The calcium assay buffer containing dye is mixed with platelets to yield a final concentration of 2.5 µg/mL Fluo4-AM and 1.0×10^8 platelets/mL. 60 µL of dye loaded platelets were added to each well of a NUNC 384 well plate black optical bottom plate (Thermo, Rochester, NY). Fluorescence measurements were recorded on a Functional Drug Screening System (FDSS) 6000, Hamamatsu (Hamamatsu, Japan) at 37°C. […] Compounds were injected by the FDSS and occurred simultaneously across each plate. Experiments reported were performed in triplicate, on the same plate, from the indicated number of donors. 480∶540 (ex:em) was measured each second for a total of 12 minutes. The final concentration of DMSO in the assay was 0.5%.
The difference between basal (defined as t0) and maximal relative fluorescence unit (RFU) values (ΔRFUs) for ex:em 480∶540 was determined for each well. The triplicate ΔRFU for DMSO treated control wells stimulated with 80 µM PAR4-AP was averaged and the average value ΔC was set to 100% max response for each plate. Each well was subsequently normalized as a percent of the ΔC control (value/ΔC×100). Normalized data was plotted in GraphPad PRISM v.5.0.

Test [3] addresses T1, PAR4. The test can be described thus: Flow cytometry: PAR4-AP mediated GPIIbIIIa activation (PAC-1 binding) in washed platelets. The following applies: for IC50: 200 µM PAR4-AP, compound 5 min before, normalized to DMSO control, Figure 4; for Extent of antagonism of PAR4 mediated platelet response / GPIIbIIIa activation: maximal (200 µM) PAR4-AP, up to 10 µM compound. The class given is cell-based. On the procedure: as §1, with “Platelet activity was quenched by the addition ice cold 1.5% paraformaldehyde followed by dilution in 1X phosphate buffered saline.” left out
as §2

Test [4] addresses T2, PAR1 (Homo sapiens, UniProt P25116).
T2 construct: Human platelets express both PAR1 and PAR4; endogenous in cells; host or cells: washed human platelets from volunteer donors
T2 sequence (P25116 22-425): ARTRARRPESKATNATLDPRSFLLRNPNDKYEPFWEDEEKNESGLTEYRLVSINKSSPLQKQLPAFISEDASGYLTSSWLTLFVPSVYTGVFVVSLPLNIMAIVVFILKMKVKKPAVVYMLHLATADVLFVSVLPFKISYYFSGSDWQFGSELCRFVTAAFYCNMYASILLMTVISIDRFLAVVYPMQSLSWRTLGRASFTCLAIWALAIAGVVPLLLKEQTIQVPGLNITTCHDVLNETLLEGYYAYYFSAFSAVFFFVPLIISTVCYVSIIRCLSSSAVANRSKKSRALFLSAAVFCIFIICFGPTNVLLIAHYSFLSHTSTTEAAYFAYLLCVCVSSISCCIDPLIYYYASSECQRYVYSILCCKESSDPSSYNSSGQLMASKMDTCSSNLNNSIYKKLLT
The test can be described thus: Flow cytometry: PAR1-AP mediated GPIIbIIIa activation (PAC-1 binding) in washed platelets. It is filed as cell-based. The following applies: 20 µM PAR1-AP. The procedure:
as §1, with “Platelet activity was quenched by the addition ice cold 1.5% paraformaldehyde followed by dilution in 1X phosphate buffered saline.” left out
as §2

The target in test [5] is T1, PAR4. The test can be described thus: PAR4-AP mediated platelet aggregation (light transmittance). The class given is cell-based. The settings on record: 200 µM PAR4-AP; compound 10 min before; Figure 6. The procedure: (§3) Briefly, washed human platelets were prepared to a final concentration of 2.0×10^8 platelets/mL in Tyrode’s buffer containing 0.1% BSA. Compounds or DMSO control were added 10 minutes prior to stimulation with either PAR1-AP or PAR4-AP. The final DMSO concentration was 0.1%. Light transmittance was recorded by a Chrono-Log Model 700 Aggregometer.
(§4) The percent of light transmitted as reported by the aggregometer was recorded in GraphPad PRISM v.5.0. 100% light transmission signifies full platelet aggregation.

Test [6] has as its target T2, PAR1. As to the kind of experiment: PAR1-AP mediated platelet aggregation (light transmittance). It is filed as cell-based. The settings on record: 20 µM PAR1-AP; compound 10 min before; Figure 6. The procedure:
as §3, §4

The target in test [7] is T1, PAR4. As to the kind of experiment: Flow cytometry: PAR4-AP mediated P-selectin expression (anti-CD62P binding) in washed platelets. The class given is cell-based. The procedure:
as §1, with “Platelet activity was quenched by the addition ice cold 1.5% paraformaldehyde followed by dilution in 1X phosphate buffered saline.” left out
as §2

The target in test [8] is T1, PAR4. Also on record: method as in PMID 12083482. The settings on record: cited from earlier work.
Setting [9] is: 1 µM compound + 10 µM RWJ-56110, 10 nM thrombin.

In the case of `CCOC(=O)c1ccc(-c2cn(Cc3ccccc3)c3ccccc23)cc1` [Compound 1], the “Reduction of thrombin mediated GPIIbIIIa activation in combination with RWJ-56110” value (“Reduction … with RWJ-56110” below) in test [1] (setting [9]) amounted to 37.1±6.4%. For the same compound, in test [1], the “Addition of the effect of RWJ-56110 on thrombin and the effect of the compound on PAR1-AP” value is on record as 32.5±6.1%.

As usually defined, the IC50 is the concentration that inhibits the measured activity by half. A higher IC50 goes with weaker potency in that assay. As for `CCOC(=O)c1ccc(-c2cn(Cc3ccccn3)c3ccccc23)cc1` [Compound 3], in test [2], the Emax at 10 µM was less than 50%. In test [3], the half-inhibitory concentration (IC50) is 1000 ± 1100 nM and the “Extent of antagonism of PAR4 mediated platelet response / GPIIbIIIa activation” value is “fully antagonize”. Moreover, the “Reduction of PAR1 mediated GPIIbIIIa activation” value in test [4] (3.16 µM compound) is recorded as 7.2±1.3%. The “Reduction … with RWJ-56110” value in test [1] (3.16 µM compound + 10 µM RWJ-56110, 10 nM thrombin) worked out at 14±2%. Further, in test [5], the “Inhibition of PAR4 mediated platelet aggregation” value is “non-significantly”.

`CCOC(=O)c1ccc(-c2cn(Cc3ccccc3)c3ncccc23)cc1` [Compound 5]: in test [2], the Emax at 10 µM is less than 50%. For the same compound, in test [3], the half-inhibitory concentration (IC50) came to 170 ± 1 nM and the “Extent of antagonism of PAR4 mediated platelet response / GPIIbIIIa activation” value is listed as “fully antagonize”. For the same compound, the “Reduction of PAR1 mediated GPIIbIIIa activation” value in test [4] (1 µM compound) was 7.2±1.4%. In addition, the “Reduction … with RWJ-56110” value in test [1] (setting [9]) is listed as 17±2%. The “Inhibition of PAR4 mediated platelet aggregation” value in test [5] is listed as “significantly inhibit PAR4”. Also, the “Inhibition of PAR1 mediated platelet aggregation” value in test [6] is listed as “not PAR1 mediated platelet aggregation”.

On to `NCC[C@H](NC(=O)[C@H](Cc1ccc(F)c(F)c1)NC(=O)Nc1ccc2c(CN3CCCC3)cn(Cc3c(Cl)cccc3Cl)c2c1)C(=O)NCc1ccccc1` [RWJ-56110, reference compound], for which the “Inhibition of thrombin mediated GPIIbIIIa activation, compound alone” value in test [1] (10 µM RWJ-56110 alone, 10 nM thrombin) stood at 18.4±5.4%.

For `CCOC(=O)c1ccc(-c2nn(Cc3ccccc3)c3ccccc23)cc1` [YD-3, ethyl 4-(1-benzyl-1H-indazol-3-yl)benzoate, reference compound], in test [2] (10 µM YD-3, increasing treatment times, then 80 µM PAR4-AP, Figure 2B), the “Inhibition time course of PAR4-AP calcium mobilization” value is “significant inhibition by YD-3 occurred as early as 1 minute”. Also, the IC50 in test [3] stood at 26 ± 1 nM; in test [7] (200 µM PAR4-AP, from raw mean fluorescent intensity values, Figure S4) it was 16.4 ± 1.1 nM. In test [1] (setting [9]), the “Reduction … with RWJ-56110” value was determined as 42.9±9.7%. Also, the “Addition of the effect of RWJ-56110 on thrombin and the effect of the compound on PAR1-AP” value in test [1] is listed as 26.8±6.0%. Further, the “Mechanism of action against PAR4 (shift of PAR4-AP concentration response curve)” value in test [7] (P-selectin expression, twelve point PAR4-AP CRCs with increasing antagonist, Figure 7) is on record as “competitive mechanism of action”. The “Mechanism of action against PAR4 by platelet aggregation” value in test [8] was “competitive in nature”.
